System: primary bone marrow-derived dendritic cells
Test: In vitro stimulation of primary bone marrow-derived murine dendritic cells, surface markers by flow cytometry
Format: cell-based, BALB/c mice
Conditions: CD11c+-gated DC, 50 ng/ml, 16 or 40 h pre-treatment
Description: FIG. 1: FIGS. 1A-1C show the results for In vitro studies using primary dendritic cells. Primary bone marrow-derived dendritic cell cultures were obtained from BALB/c mice by in vitro maturation of precursors using recombinant GM-CSF (5×10^4 U/ml). Mature dendritic cells were stimulated with 10 ng/ml of E. coli lypopolysaccharide (LPS) or 50 and 100 ng/ml of BPPcysGlyc4armPEG and BPPcysAda, respectively. Then, cells were double-labeled with antibodies specific for CD11c (dendritic cell marker) in combination with anti-CD40, anti-CD54, anti-CD80, anti-CD86, anti-MHC class 1, or anti-MHC class 11 antibodies. The expression of CD40, CD80, CD54, CD86, anti-MHC class 1, and MHC class 11 in CD11c-gated cells were analyzed by flow cytometry.
Experimental protocol: primary bone marrow-derived dendritic cell cultures were obtained from BALB/c mice following in vitro maturation of precursors in the presence of recombinant GM-CSF (5×10^4 U/ml), according to established protocols. Mature dendritic cells were stimulated with 10 ng/ml of E. coli lypopolysaccharide (LPS) or 5 ng/ml of BPPcysGlyc4armPEG, after 12, 24 and/or 48 h stimulation cells were analyzed by flow cytometry to assess the expression of surface markers which are relevant for their antigen presentation capacity.
In order to identify compounds which may have potential as adjuvants for in vivo applications in the vaccinology field, a first in vitro screening based on the used of primary cultures of bone marrow-derived dendritic cells was established. Dendritic cells were selected since they represent the most efficient antigen presenting cells and they play a key role by primary immune responses. In fact, they are the only cell type able to activate resting T cells initiating primary immune responses in vivo. Thus, dendritic cell cultures were treated with the tested moieties or LPS, which was used as a positive control. At different time intervals, samples were taken, stained with fluorescent-labeled antibodies specific for cellular markers critical for the antigen presenting capacities of dendritic cells, and analyzed by flow cytometry.
To test the stimulatory capacity of BPPCysAda on maturation and activation of bone marrow-derived DC, immature DC's were stimulated in vitro with BPPCysAda. Surface markers on CD11c+-gated DC were investigated by FACS analysis after 16 or 40 h pre-treatment.

SMILES: CCCCCCCCCCCCCCCC(=O)OCC(CSC[C@H](N)C(=O)N[C@H]1[C@@H](O)[C@H](n2cnc3c(N)ncnc32)O[C@@H]1CO)OC(=O)CCCCCCCCCCCCCCC (single isomer, unassigned) [BPPcysAda, S-[2,3-bis(palmitoyloxy)-(2S or 2R)-propyl]-L-cysteinylcarboxy-3′Amino-3′-deoxyadenosine]
- expression of MHC class I and II molecules: increased expression
- expression of the adhesion molecule ICAM-1 (CD54): enhanced expression
- expression of the co-stimulatory molecule CD86: up-regulated

Source: patent publication US8119689B2, “Adjuvants on the basis of bisacyloxypropylcystene conjugates and derivatives and their uses in pharmaceutical compositions” (Helmholtz-Zentrum Fuer Infektionsforschung GmbH, priority 2005, dated 2012)
